Experimental data published in patent publication US5514687A, “Benzopyrido piperidylidene compounds, compositions, methods of manufacture and method of use” (Schering Corporation, priority 1993, dated 1996).

Columns and labels:
[1] = tested on: PAF; assay: PAF-induced bronchospasm in guinea pigs (in vivo, oral); parameters: species or system guinea pig; details: PAF 0.4 μg/kg i.v.
Procedure: (§1) B. In Vivo Studies: Agonist-Induced Responses Spasmogen-Induced Bronchospasm in Guinea Pigs
(§2) Male Hartley guinea pigs (450-550 g) were obtained from Charles River Breeding Laboratories. The animals were fasted overnight and the following day were anesthetized with 0.9 mL/kg i.p. of dialurethane (containing 0.1 g/mL dialylbarbiturikc acid, 0.4 g/mL ethylurea and 0.4 g/mL urethane). The left jugular vein was cannulated for the administration of compounds. The trachea was cannulated and the animals were venticlated by a rodent respirator at 55 strokes/min. with a stroke volume of 4 mL. A side arm to the tracheal cannula was connected to a pressure transducer to obtain a continuous measure of inflation pressure. Bronchoconstriction was measured as the percent increase in inflation pressure that peaked within 5 min. after challenge with spasmogen. The animals were challenged i.v. with either histamine (10 ug/kg) or PAF (0.4 μg/kg in isotonic saline containing 0.25% BSA). Each animal was challenged with only a single spasmogen. The effect of a compound on the bronchospasm is expressed as a percent inhibition of the increase in inflation pressure compared to the increase in a control group.

[2] = tested on: PAF-induced platelet aggregation; assay: Platelet Aggregation Assay (PAF antagonism, in vitro); format: cell-based; details: human platelet-rich plasma, PAF 1-5×10^-8 M, 37° C.
Procedure: Platelet Aggregation Assay
Platelet-activating factor (PAF) causes aggregation of platelets by a receptor-mediated mechanism. Therefore, PAF-induced platelet aggregation provides a simple and convenient assay to screen compounds for PAF antagonism.
Human blood (50 mL) was collected from healthy male donors in an anticoagulant solution (5 mL) containing sodium citrate (3.8%) and dextrose (2%), Blood was centrifuged at 110×g for 15 min. and the supeernatant platelet-rich plasma (PRP) carefully transferred into a polypropylene tube. Platelet-poor-plasma (PPP) was prepared by centrifuging PRP at 12,000×g for 2 min. (Beckman Microfuge B). PRP was used within 3 hr. of drawing the blood.
PAF was dissolved In chloroform:methanol (1:1, v/v) at a concentration of 2 mg/mL and stored at -70° C. An aliquot of this solution was transferred to a polypropylene tube and dried under a flow of nitrogen gas. To the dried sample was added Hepes-e-BSA (BSA=bovine serum albumen) buffer (25 mM Hepes, pH 7.4, […], 0.7 mM MgCl2 and 0.1% BSA) to obtain a 1 mM solution and sonicated for 5 min. in a bath sonicator. This stock solution was further diluted to appropriate concentrations in Hepes-saline-BSA buffer. Collagen (Sigma) and adenosine diphosphate (ADP) (Sigma) were purchased as solutions. Test compounds were initially dissolved in dimethyl sulfoxide (DMSO) at a concentration of 50 mM and then further diluted in Hepes-saline-BSA buffer to achieve appropriate concentrations.
When an aggregating agen such as PAF is added to PRP, platelets aggregate. An aggregometer quantifies this aggreation by measuring and comparing light (infra-red) transmission through PPP and PRP. Aggregation assays were performed using a dual-channel aggregometer (Model 440, Chrono-Log Corp., Havertown, Pa.). PRP (0.45 mL) in aggregometer cuvettes was continually stirred (37° C.). Solution (50 μL) of test compounds or vehicle were added to the PRP and, after incubation for 2 min., 10-15 μl aliquots of PAF solution were added to achieve a final concentration of 1-5×10^-8 M. In different experiments the aggregatory response was kept within a set limit by varying the concentration of PAF. Incubations were continued until the increase in light transmission reached a maximum (usually 2 min.). This increase in lighyt transmission reflecting platlet aggregation is transmitted to a computer by the Chrono-Log model 810 AGGRO/LINK interface. The AGGRO/LINK calculates the slope of transmission change, thus providing the rate of aggregation. Values for inhibition were calculated by comparing rates of aggregation obtained in the absence and the presence of the compound. […]

[3] = tested on: Histamine; assay: Histamine-induced bronchospasm in guinea pigs (in vivo, oral); parameters: species or system guinea pig; details: histamine 10 ug/kg i.v.
Procedure: as §1, §2

[4] = oral 3 mg/kg, 2 hours after drug
[5] = oral 15 mg/kg, 8 hours after drug
[6] = oral 10 mg/kg, 6 hours after drug
[7] = oral 10 mg/kg, 16 hours after drug
[8] = oral 5 mg/kg, 8 hours after drug
[9] = oral 15 mg/kg, 16 hours after drug

Row | Structure (SMILES) | Agonist Bronchospasm (in vivo)-Oral, PAF, Inhibition ([1]; oral 10 mg/kg, 2 hours after drug) [%] | IC50 [2] [nM] | Agonist Bronchospasm (in vivo)-Oral, Histamine, Inhibition [3, 4] [%] | Agonist Bronchospasm (in vivo)-Oral, Histamine, Inhibition [3, 5] [%] | Agonist Bronchospasm (in vivo)-Oral, PAF, Inhibition [1, 4] [%] | Agonist Bronchospasm (in vivo)-Oral, PAF, Inhibition [1, 5] [%] | Agonist Bronchospasm (in vivo)-Oral, Histamine, Inhibition [3, 6] [%] | Agonist Bronchospasm (in vivo)-Oral, Histamine, Inhibition [3, 7] [%] | Agonist Bronchospasm (in vivo)-Oral, PAF, Inhibition [1, 6] [%] | Agonist Bronchospasm (in vivo)-Oral, PAF, Inhibition [1, 7] [%] | Agonist Bronchospasm (in vivo)-Oral, Histamine, Inhibition [3, 8] [%] | Agonist Bronchospasm (in vivo)-Oral, Histamine, Inhibition [3, 9] [%] | Agonist Bronchospasm (in vivo)-Oral, PAF, Inhibition [1, 8] [%] | Agonist Bronchospasm (in vivo)-Oral, PAF, Inhibition [1, 9] [%]
1 | CC(=O)N1CCC(=C2c3ccc(Cl)cc3OCc3cccnc32)CC1 [Compound No. 2] | 27 | 6000 | – | – | – | – | – | – | – | – | – | – | – | –
2 | CC(=O)N1CCC(=C2c3ccc(Cl)cc3CCc3cccnc32)CC1 [Compound No. 1] | – | 600 | 49 | 100 | 3 | 32 | – | – | – | – | – | – | – | –
3 | O=C(c1cc[n+]([O-])cc1)N1CCC(=C2c3ccc(Cl)cc3OCc3cccnc32)CC1 [Compound No. 4, 4-(8-Chloro-5,11-dihydro 1!benzoxepino 4,3-b!pyridin-11-ylidene)-1-(4-pyridinylcarbonyl)piperidine N^1-oxide] | – | 400 | 46 | – | 76 | – | 73 | 95 | 94 | 55 | – | – | – | –
4 | O=C(c1cc[n+]([O-])cc1)N1CCC(=C2c3ccc(Cl)cc3CCc3cccnc32)CC1 [Compound No. 3] | – | 200 | 37 | – | 93 | – | – | – | – | – | 33 | 64 | 12 | 13
